# From US20250368666A1, “INDAZOLE COMPOUNDS” (TYRA BIOSCIENCES, INC., priority 2022, published 2025)
# Experiments:
# FGFR1 = biological target: T1, FGFR1 (Homo sapiens, UniProt P11362); test: Kinase binding assay (kinase-tagged T7 phage, affinity beads, qPCR), Kd; settings: read-out: FGFR1 (Kd nM)
# T1 construct: made in house; host or cells: E. coli (BL21-derived), T7 phage
# How it was run: (§1)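 Kd obtained by Levenberg–Marquardt Hill-equation fit (slope −1) to qPCR-measured kinase retained on ligand-coated streptavidin beads.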
# FGFR3 = biological target: T2, FGFR3 (Homo sapiens, UniProt P22607); test: as above; settings: read-out: FGFR3 (Kd nM)
# T2 construct: made in house; host or cells: E. coli (BL21-derived), T7 phage
# T2 sequence (P22607 23-806): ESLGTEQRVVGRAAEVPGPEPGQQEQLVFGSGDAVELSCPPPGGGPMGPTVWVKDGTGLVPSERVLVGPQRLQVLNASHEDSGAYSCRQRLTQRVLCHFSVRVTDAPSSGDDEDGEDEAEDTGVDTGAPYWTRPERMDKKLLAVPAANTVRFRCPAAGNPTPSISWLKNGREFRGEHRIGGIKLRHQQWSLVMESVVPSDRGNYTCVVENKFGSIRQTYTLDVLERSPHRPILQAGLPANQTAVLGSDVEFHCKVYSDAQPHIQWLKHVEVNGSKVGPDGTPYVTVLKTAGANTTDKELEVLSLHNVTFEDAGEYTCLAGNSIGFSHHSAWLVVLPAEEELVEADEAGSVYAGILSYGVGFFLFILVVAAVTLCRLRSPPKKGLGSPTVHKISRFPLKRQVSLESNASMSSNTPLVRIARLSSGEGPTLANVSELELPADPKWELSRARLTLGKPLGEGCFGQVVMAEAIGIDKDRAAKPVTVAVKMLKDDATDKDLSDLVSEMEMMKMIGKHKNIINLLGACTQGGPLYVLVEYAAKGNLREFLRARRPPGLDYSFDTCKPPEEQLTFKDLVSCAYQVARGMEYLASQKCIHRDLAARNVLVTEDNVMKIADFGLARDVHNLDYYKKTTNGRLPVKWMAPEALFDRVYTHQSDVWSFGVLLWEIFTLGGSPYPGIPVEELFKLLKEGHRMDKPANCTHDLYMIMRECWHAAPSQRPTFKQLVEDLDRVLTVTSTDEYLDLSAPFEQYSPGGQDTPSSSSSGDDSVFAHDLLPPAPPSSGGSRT
# How it was run: as §1
# [1] = system: MDA-MB-453 cell line (FGFR4-Y367C); test: Cancer cell line cell viability assay (Cell Titer-Glo), 120 hr; format: cell-based; settings: Homo sapiens
# How it was run: (§2)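 Cells were seeded at 5,000–20,000 per well, then exposed to a 9-point, 4-fold dilution series from 3 μM top concentration in triplicate at 37° C. Exposure was 120 h for MDA-MB-453 and HuH7 and 72 h for KG-1 and RT112/84. Viability was read as ATP by Cell Titer-Glo 2.0, expressed as % of DMSO control, and fitted by 4-parameter IC50.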
# [2] = system: KATO-III cell line (FGFR2 amplification); test: Cancer cell line cell viability assay (Cell Titer-Glo), 72 hr; format: cell-based; settings: Homo sapiens, KATO III
# How it was run: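 Cells seeded at 5,000-20,000/well, incubated overnight, then treated with a 9-dose, 4-fold dilution series from 3 μM in triplicate at 37° C, 5% CO2. Viability read by Cell Titer-Glo 2.0 luminescence as percent of DMSO control; IC50 from 4-parameter variable-slope sigmoidal fit.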
# [3] = system: KG-1 cell line (FGFR 1-fusion); test: as above; format: cell-based; settings: Homo sapiens, KG-1, KG-1 cell line (FGFR1-fusion)
# How it was run: as §2
# [4] = system: RT112/84 cell line (FGFR3-fusion); test: as above; format: cell-based; settings: Homo sapiens, RT112/84, RT112/84 cell line (FGFR3-fusion)
# How it was run: as §2
# FGFR3 (V555M) = biological target: T3, FGFR3 (V555M) (Homo sapiens, UniProt P22607, V555M); test: Kinase binding assay (kinase-tagged T7 phage, affinity beads, qPCR), Kd; settings: V555M mutant; read-out: FGFR3 (V555M) (Kd nM)
# T3 construct: made in house; host or cells: E. coli (BL21-derived), T7 phage
# T3 sequence (P22607 23-806 V555M): as the sequence (P22607 23-806) above, with V533M counted along it
# How it was run: as §1
# FGFR4 = biological target: T4, FGFR4 (Homo sapiens, UniProt P22455); test: as above; settings: read-out: FGFR4 (Kd nM)
# T4 construct: made in house; host or cells: E. coli (BL21-derived), T7 phage
# T4 sequence (P22455 22-802): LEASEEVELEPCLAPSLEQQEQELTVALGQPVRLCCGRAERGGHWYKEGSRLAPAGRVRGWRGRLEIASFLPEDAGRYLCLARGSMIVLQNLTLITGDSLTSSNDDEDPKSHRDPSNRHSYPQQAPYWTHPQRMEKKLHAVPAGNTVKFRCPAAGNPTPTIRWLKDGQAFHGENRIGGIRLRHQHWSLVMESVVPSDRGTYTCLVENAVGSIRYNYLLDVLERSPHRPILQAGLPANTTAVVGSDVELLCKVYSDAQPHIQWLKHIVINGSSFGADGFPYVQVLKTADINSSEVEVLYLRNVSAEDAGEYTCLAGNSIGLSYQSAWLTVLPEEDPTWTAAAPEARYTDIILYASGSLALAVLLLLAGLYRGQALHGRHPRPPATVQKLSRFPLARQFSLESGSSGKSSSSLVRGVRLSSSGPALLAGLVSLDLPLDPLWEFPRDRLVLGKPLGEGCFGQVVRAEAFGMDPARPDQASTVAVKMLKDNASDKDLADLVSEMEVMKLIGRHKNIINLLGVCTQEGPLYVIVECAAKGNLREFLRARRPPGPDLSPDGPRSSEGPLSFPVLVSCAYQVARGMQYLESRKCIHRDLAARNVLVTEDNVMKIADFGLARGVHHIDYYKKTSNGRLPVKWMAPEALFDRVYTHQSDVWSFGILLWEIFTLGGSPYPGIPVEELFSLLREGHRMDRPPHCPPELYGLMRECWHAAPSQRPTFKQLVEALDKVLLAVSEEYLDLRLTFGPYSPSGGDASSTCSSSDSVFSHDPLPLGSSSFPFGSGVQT
# How it was run: as §1
# FGFR2 = biological target: T5, FGFR2 (Homo sapiens, UniProt P21802); test: as above; settings: read-out: FGFR2 (Kd nM)
# T5 construct: made in house; host or cells: E. coli (BL21-derived), T7 phage
# T5 sequence (P21802 22-821): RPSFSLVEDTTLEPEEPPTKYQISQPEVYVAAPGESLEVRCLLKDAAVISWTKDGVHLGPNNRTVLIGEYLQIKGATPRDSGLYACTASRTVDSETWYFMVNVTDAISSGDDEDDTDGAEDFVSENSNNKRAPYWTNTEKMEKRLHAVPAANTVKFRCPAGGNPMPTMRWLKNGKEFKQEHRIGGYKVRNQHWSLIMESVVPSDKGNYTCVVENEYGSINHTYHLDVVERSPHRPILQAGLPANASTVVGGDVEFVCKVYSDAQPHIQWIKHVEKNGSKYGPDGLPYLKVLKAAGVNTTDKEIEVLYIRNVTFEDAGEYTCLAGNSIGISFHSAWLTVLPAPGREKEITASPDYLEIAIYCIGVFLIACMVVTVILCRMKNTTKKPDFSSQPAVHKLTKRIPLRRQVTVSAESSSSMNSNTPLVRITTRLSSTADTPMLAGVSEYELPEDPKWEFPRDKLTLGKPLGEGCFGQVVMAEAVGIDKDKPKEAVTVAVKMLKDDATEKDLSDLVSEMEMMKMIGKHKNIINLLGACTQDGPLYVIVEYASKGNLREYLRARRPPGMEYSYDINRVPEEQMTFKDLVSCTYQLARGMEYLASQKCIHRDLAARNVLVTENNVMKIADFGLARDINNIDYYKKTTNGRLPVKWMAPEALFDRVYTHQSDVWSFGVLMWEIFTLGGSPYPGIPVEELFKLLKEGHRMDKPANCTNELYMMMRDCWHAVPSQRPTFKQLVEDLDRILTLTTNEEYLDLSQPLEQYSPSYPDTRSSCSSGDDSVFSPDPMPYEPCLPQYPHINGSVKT
# How it was run: as §1
# [5] = system: HuH7 cell line (FGF19 amplification); test: Cancer cell line cell viability assay (Cell Titer-Glo), 120 hr; format: cell-based; settings: Homo sapiens, Huh-7
# How it was run: as §2
# T1 sequence (P11362 22-822): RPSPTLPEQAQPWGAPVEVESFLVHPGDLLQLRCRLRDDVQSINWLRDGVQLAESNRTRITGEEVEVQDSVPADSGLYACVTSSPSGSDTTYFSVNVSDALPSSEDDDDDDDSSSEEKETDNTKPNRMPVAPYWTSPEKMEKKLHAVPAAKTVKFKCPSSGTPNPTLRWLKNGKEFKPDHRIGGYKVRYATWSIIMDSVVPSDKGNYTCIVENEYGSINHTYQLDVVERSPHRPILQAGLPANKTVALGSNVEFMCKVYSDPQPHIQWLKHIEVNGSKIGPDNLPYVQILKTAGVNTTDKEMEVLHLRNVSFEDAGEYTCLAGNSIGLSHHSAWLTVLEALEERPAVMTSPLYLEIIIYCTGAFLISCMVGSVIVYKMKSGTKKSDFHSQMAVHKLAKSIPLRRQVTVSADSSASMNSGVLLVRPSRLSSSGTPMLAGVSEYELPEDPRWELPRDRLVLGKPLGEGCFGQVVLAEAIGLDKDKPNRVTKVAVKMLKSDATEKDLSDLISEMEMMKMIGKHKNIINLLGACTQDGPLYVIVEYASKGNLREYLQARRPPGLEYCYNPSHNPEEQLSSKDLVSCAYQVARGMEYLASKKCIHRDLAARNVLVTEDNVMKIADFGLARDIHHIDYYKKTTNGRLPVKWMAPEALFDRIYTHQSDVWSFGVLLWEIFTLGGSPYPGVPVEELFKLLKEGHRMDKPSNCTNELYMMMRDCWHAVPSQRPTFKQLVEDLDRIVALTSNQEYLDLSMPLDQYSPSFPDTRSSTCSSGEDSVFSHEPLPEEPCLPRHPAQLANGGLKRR
SMILES,Kd (FGFR1) [nM],Kd (FGFR3) [nM],IC50 [1] [nM],IC50 [2] [nM],IC50 [3] [nM],IC50 [4] [nM],Kd (FGFR3 (V555M)) [nM],Kd (FGFR4) [nM],Kd (FGFR2) [nM],IC50 [5] [nM]
"CC(C)CNC1(C)CN(c2ccc(-c3n[nH]c4ccc(O[C@H](C)c5c(Cl)cncc5Cl)cc34)nn2)C1 [Example 242, (R)-1-(6-(5-(1-(3,5-dichloropyridin-4-yl)ethoxy)-1H-indazol-3-yl)pyridazin-3-yl)-N-isobutyl-3-methylazetidin-3-amine]",1 to 50,1 to 50,200 to 1000,50 to 200,50 to 200,0.1 to 50,,,,
"C[C@@H](Oc1ccc2[nH]nc(-c3cnc(N4CC(C)(NCC5CC5)C4)cc3F)c2c1)c1c(Cl)cncc1Cl [Example 243, (R)—N-(cyclopropylmethyl)-1-(5-(5-(1-(3,5-dichloropyridin-4-yl)ethoxy)-1H-indazol-3-yl)-4-fluoropyridin-2-yl)-3-methylazetidin-3-amine]",1 to 50,1 to 50,50 to 200,200 to 1000,200 to 1000,0.1 to 50,,,,
"CC(C)NC1(C)CN(c2ccc(-c3n[nH]c4ccc(O[C@H](C)c5c(Cl)cncc5Cl)cc34)nn2)C1 [Example 244, (R)-1-(6-(5-(1-(3,5-dichloropyridin-4-yl)ethoxy)-1H-indazol-3-yl)pyridazin-3-yl)-N-isopropyl-3-methylazetidin-3-amine]",1 to 50,1 to 50,200 to 1000,50 to 200,50 to 200,0.1 to 50,,,,
"CC(C)CN(C)C1(C)CN(c2ncc(-c3n[nH]c4ccc(O[C@H](C)c5c(Cl)cncc5Cl)cc34)cc2F)C1 [Example 245, (R)-1-(5-(5-(1-(3,5-dichloropyridin-4-yl)ethoxy)-1H-indazol-3-yl)-3-fluoropyridin-2-yl)-N-isobutyl-N,3-dimethylazetidin-3-amine]",50 to 300,1 to 50,> 1000,> 1000,> 1000,50 to 200,,,,
"C[C@@H](Oc1ccc2[nH]nc(-c3cnc(N4CC(C)(N(C)CC5CC5)C4)c(F)c3)c2c1)c1c(Cl)cncc1Cl [Example 246, (R)-N-(cyclopropyl-methyl)-1-(5-(5-(1-(3,5-dichloropyridin-4-yl)ethoxy)-1H-indazol-3-yl)-3-fluoropyridin-2-yl)-N,3-dimethylazetidin-3-amine]",1 to 50,1 to 50,200 to 1000,50 to 200,200 to 1000,0.1 to 50,,,,
"COc1cc2[nH]nc(-c3cnc(N4CC(C)(N5CC6CC(C5)O6)C4)c(C#N)c3)c2cc1O[C@H](C)c1c(Cl)cncc1Cl [Example 337, 2-(3-(6-oxa-3-aza-bicyclo[3.1.1]hep-tan-3-yl)-3-methylazetidin-1-yl)-5-(5-((R)-1-(3,5-dichloropyridin-4-yl)ethoxy)-6-methoxy-1H-indazol-3-yl)nicotinonitrile]",1 to 50,1 to 50,,50 to 200,50 to 200,0.1 to 50,1 to 50,1 to 50,1 to 50,0.1 to 50

# Second part, the compound after the results:
Kd (FGFR1) [nM],Kd (FGFR3) [nM],IC50 [1] [nM],IC50 [2] [nM],IC50 [3] [nM],IC50 [4] [nM],Kd (FGFR3 (V555M)) [nM],Kd (FGFR4) [nM],Kd (FGFR2) [nM],IC50 [5] [nM],SMILES
1 to 50,1 to 50,,200 to 1000,200 to 1000,50 to 200,1 to 50,1 to 50,1 to 50,0.1 to 50,"C[C@@H](Oc1ccc2[nH]nc(-c3cnc(N4CC(C)(N5CCS(=O)(=O)CC5)C4)c(C#N)c3)c2c1)c1c(Cl)cncc1Cl [Example 321, (R)-5-(5-(1-(3,5-dichloropyridin-4-yl)ethoxy)-1H-indazol-3-yl)-2-(3-(1,1-dioxidothio-morpholino)-3-methylazetidin-1-yl)nicotinonitrile]"
1 to 50,1 to 50,,50 to 200,200 to 1000,50 to 200,1 to 50,1 to 50,1 to 50,0.1 to 50,"C[C@@H](Oc1ccc2[nH]nc(-c3cnc(N4CC(C)(NCCS(C)(=O)=O)C4)c(C#N)c3)c2c1)c1c(Cl)cncc1Cl [Example 325, 5-[5-[(1R)-1-(3,5-dichloro-4-pyridyl)ethoxy]-1H-indazol-3-yl]-2-[3-methyl-3-(2-methylsulfonylethyl-amino)azetidin-1-yl]pyridine-3-carbonitrile]"
1 to 50,1 to 50,,200 to 1000,> 1000,50 to 200,1 to 50,1 to 50,1 to 50,50 to 200,"C[C@@H](Oc1ccc2[nH]nc(-c3cnc(N4CC(C)(N5CCP(C)(=O)CC5)C4)c(C#N)c3)c2c1)c1c(Cl)cncc1Cl [Example 328, (R)-5-(5-(1-(3,5-dichloropyridin-4-yl)ethoxy)-1H-indazol-3-yl)-2-(3-methyl-3-(4-methyl-4-oxido-1,4-azaphosphinan-1-yl)azetidin-1-yl)nicotinonitrile]"
1 to 50,1 to 50,,200 to 1000,> 1000,50 to 200,1 to 50,1 to 50,1 to 50,0.1 to 50,"COc1cc2[nH]nc(-c3cnc(N4CC(C)(NCP(C)(C)=O)C4)c(C#N)c3)c2cc1O[C@H](C)c1c(Cl)cncc1Cl [Example 329, 5-[5-[(1R)-1-(3,5-dichloro-4-pyridyl)ethoxy]-6-methoxy-1H-indazol-3-yl]-2-[3-(dimethyl-phosphoryl-methylamino)-3-methyl-azetidin-1-yl]pyridine-3-carbonitrile]"
1 to 50,1 to 50,,50 to 200,200 to 1000,0.1 to 50,1 to 50,1 to 50,1 to 50,0.1 to 50,"COc1cc2[nH]nc(-c3cnc(N4CC(C)(N5CCS(=O)(=O)CC5)C4)c(C#N)c3)c2cc1O[C@H](C)c1c(Cl)cncc1Cl [Example 334, (R)-5-(5-(1-(3,5-dichloropyridin-4-yl)ethoxy)-6-methoxy-1H-indazol-3-yl)-2-(3-(1,1-dioxidothio-morpholino)-3-methylazetidin-1-yl)nicotinonitrile]"
1 to 50,1 to 50,,50 to 200,50 to 200,0.1 to 50,1 to 50,1 to 50,1 to 50,0.1 to 50,"COc1cc2[nH]nc(-c3cnc(N4CC(C)(N5C[C@H]6C[C@@H]5CO6)C4)c(C#N)c3)c2cc1O[C@H](C)c1c(Cl)cncc1Cl [Example 338, 2-(3-((1R,4R)-2-oxa-5-aza-bicyclo[2.2.1]hep-tan-5-yl)-3-methylazetidin-1-yl)-5-(5-((R)-1-(3,5-dichloropyridin-4-yl)ethoxy)-6-methoxy-1H-indazol-3-yl)nicotinonitrile]"
1 to 50,1 to 50,,0.1 to 50,0.1 to 50,0.1 to 50,1 to 50,1 to 50,1 to 50,0.1 to 50,"COc1cc2[nH]nc(-c3cnc(N4CC(C)(NCC5CC5)C4)nc3)c2cc1O[C@H](C)c1c(Cl)cncc1Cl [Example 339, (R)-N-(cyclopropyl-methyl)-1-(5-(5-(1-(3,5-dichloropyridin-4-yl)ethoxy)-6-methoxy-1H-indazol-3-yl)pyrimidin-2-yl)-3-methylazetidin-3-amine]"
